In publication PMC12436592 (Nature Communications, 2025):
Values joined by “and” are separate entries in the source; they are usually repeats but may differ in a detail not shown here. Identical values can stand only once. One block for each compound: values may come before it.

Tests used:
[1] = target: T1, hP2X7R (Homo sapiens, UniProt Q99572); assay: Calcium influx assay, 1321N1 astrocytoma cells, BzATP EC80; format: cell-based; design: expressed in transfected cells; conditions: for IC50: 1321N1 cells, BzATP EC80, mean ± SD
T1 sequence (Q99572 1-595): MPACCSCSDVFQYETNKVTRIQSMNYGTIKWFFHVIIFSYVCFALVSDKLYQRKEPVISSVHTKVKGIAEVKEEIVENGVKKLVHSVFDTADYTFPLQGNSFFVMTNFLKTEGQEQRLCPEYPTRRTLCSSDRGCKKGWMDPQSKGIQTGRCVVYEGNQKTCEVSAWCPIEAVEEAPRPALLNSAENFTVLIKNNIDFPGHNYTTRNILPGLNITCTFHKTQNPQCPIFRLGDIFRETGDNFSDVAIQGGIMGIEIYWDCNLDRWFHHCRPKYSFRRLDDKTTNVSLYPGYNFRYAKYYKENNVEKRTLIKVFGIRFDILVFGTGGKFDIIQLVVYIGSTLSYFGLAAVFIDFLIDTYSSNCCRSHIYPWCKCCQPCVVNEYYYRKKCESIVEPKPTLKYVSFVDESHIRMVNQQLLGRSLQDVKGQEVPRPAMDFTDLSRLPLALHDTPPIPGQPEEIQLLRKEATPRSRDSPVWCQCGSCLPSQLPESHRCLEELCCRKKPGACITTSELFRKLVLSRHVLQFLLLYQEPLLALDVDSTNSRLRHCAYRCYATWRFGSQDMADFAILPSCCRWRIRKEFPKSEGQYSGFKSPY
Text: For 1321N1 astrocytoma cells stably expressing the human, rat, or mouse P2X7Rs, or hP2X2Rs or hP2X4Rs, the fluorescent Ca^2+-chelating dye Fluo-4 acetoxymethyl ester (Fluo-4 AM, Thermo Fisher Scientific, Dreieich, Germany) was used. For 1321N1 astrocytoma cell lines recombinantly expressing the hP2X1Rs or hP2X3Rs, the FLIPR® Calcium 5 Assay Kit (Molecular Devices, San José, CA, USA) was employed. Human, rat, and mouse P2X7Rs as well as hP2X1Rs, hP2X2Rs, hP2X3Rs, and hP2X4Rs were recombinantly expressed in 1321N1 astrocytoma cells using a retroviral expression system[72]–[74].
On the first day, 45,000 cells per well (30,000 cells for the human P2X3 receptor-expressing cells) were seeded into a 96-well polystyrene microplate with a black, flat bottom in a final volume of 200 µL. After overnight incubation at 37 °C and 10% CO2 (5% CO2 for the human P2X3R-expressing cell line), the medium was removed by inverting the plate, and the cells were loaded with dye solution. Hanks’ balanced salt solution (HBSS, Thermo Fisher Scientific, Dreieich, Germany) was used as the assay buffer for human P2X1R, P2X2R, P2X3R, and P2X4R. For the P2X7Rs, a different assay buffer was used: 150 mM sodium-glutamate, 5 mM KCl, 0.5 mM CaCl2, 0.1 mM MgCl2, 10 mM D-glucose, 25 mM 4-(2-hydroxyethyl)-1-piperazineethanesulfonic acid (HEPES), pH 7.4. The dye solutions were freshly prepared. The Fluo-4 AM solution contained 3 µM of Fluo-4 AM in assay buffer and 1% of the non-ionic detergent Pluronic F-127® (Sigma-Aldrich, Taufkirchen, Germany). The Calcium 5 dye, used for hP2X1Rs and hP2X3Rs, was prepared in HBSS buffer. Cells were loaded with Fluo-4 AM and incubated for 1 h at room temperature with gentle shaking (100 rpm), while those loaded with the Calcium 5 dye were incubated for 1 h at 37 °C. After incubation, the dye solution was carefully removed from the plate, and buffer was added to the cells for the evaluation of agonists. […] The agonist solution was prepared in a 96-well transparent plate, obtaining the respective EC80 values. As a control, assay buffer without the test compound was used. After 30 min of incubation with antagonist, the plates were measured using a fluorescence imaging plate reader NOVOstar (BMG Labtech GmbH, Offenburg, Germany) at an excitation wavelength of 485 nm and an emission wavelength of 520 nm, for 30 s at 0.4 s intervals. Calcium influx measurements were then initiated by automatic addition of 20 µL of agonist solution by the plate reader’s pipetting device. Data were analyzed using Microsoft Excel and GraphPad Prism (Version 8.0, San Diego, CA, USA). EC80 and IC50 values were calculated using nonlinear regression with a sigmoidal dose-response equation.

[2] = target: T1, hP2X7R; assay: Ethidium bromide accumulation in hP2X7R-expressing HEK293 cells; format: cell-based; design: expressed in transfected cells; conditions: for ΔΔGexp: relative to UB-ALT-P30, from experimental pIC50 values, T = 298 K; for MAX100 (% of maximum accumulation, replicates 1-3): single replicates
Procedure: Human P2X7R-expressing HEK293 cells were cultured in a humidified atmosphere of 5% CO2 at 37 °C in Dulbecco’s Modification of Eagle’s Medium (DMEM; Corning) supplemented with 10% (v/v) fetal bovine serum (Corning) and 1% (v/v) antibiotic–antimycotic (Gibco)[75]. To perform the assay, the DMEM was removed, and the HEK293 cells were washed with 3 mL of 1X DPBS (Dulbecco’s Phosphate-Buffered Saline; Corning). After the removal of DPBS solution, the cells were detached from the dish with 1 mL of trypsin/EDTA (Gibco), and the cells were collected by centrifugation. The cells (density of 2.25 × 10^7) were re-suspended in 4-(2-hydroxyethyl)-1-piperazineethanesulfonic acid (HEPES)-buffered salt solution consisting of 140 mM potassium chloride, 1 mM ethylene diamine tetraacetic acid (EDTA), 5 mM glucose, 20 mM HEPES, and 0.1 mM ethidium bromide (pH 7.4). The vehicles or appropriate range of concentrations of compounds (10 μL, pre-diluted in 10% (v/v) DMSO in DW from 10 mM stock) were added to each well of 96-well black plate (Corning), and 80 μL of the cell suspension was subsequently added to each well. BzATP (10 μL, pre-diluted in DW from 10 mM stock) was then added, and the final assay volume was maintained at 100 μL. After the incubation in 5% CO2 at 37 °C for 2 h, the ethidium dye uptake was detected by measuring the fluorescence (excitation wavelength of 530 nm and emission wavelength of 590 nm) of each well using a CHAMELEON™ Multi-Technology Plate Reader. The antagonistic activities of compounds are expressed as the percentages relative to the maximum accumulation of ethidium bromide observed in the control group with the stimulation of the hP2X7R by an agonist, BzATP. The IC50 values of compounds as antagonists were calculated using nonlinear regression analysis using OriginPro 9.1 software.

[3] = BzATP 7 μM, antagonist concentration 0.1 (unit not given)
[4] = BzATP 7 μM, antagonist concentration 0.5 (unit not given)
[5] = BzATP 7 μM, antagonist concentration 1 (unit not given)
[6] = BzATP 7 μM, antagonist concentration 5 (unit not given)
[7] = BzATP 7 μM, antagonist concentration 10 (unit not given)
[8] = BzATP 7 μM, antagonist concentration 100 (unit not given)
[9] = BzATP 6 μM, antagonist concentration 1 (unit not given)
[10] = BzATP 6 μM, antagonist concentration 10 (unit not given)
[11] = BzATP 6 μM, antagonist concentration 50 (unit not given)
[12] = BzATP 6 μM, antagonist concentration 100 (unit not given)
[13] = BzATP 6 μM, antagonist concentration 500 (unit not given)
[14] = BzATP 6 μM, antagonist concentration 1000 (unit not given)

activity at 0.0003 µM ([1]; 1321-N1, Log(c) M -9.52288, read-out: normalized calcium signal, hP2X7R IC50 curve): 82.4% | activity at 0.0001 µM ([1]; 1321-N1, Log(c) M -10, read-out: normalized calcium signal, hP2X7R IC50 curve): 110% | activity at 30 pM ([1]; 1321-N1, Log(c) M -10.5229, read-out: normalized calcium signal, hP2X7R IC50 curve): 100% | IC50 [1]: 0.000514 ± 3.5e-05 µM | normalized calcium signal, hP2X7R IC50 curve ([1]; Log(c) M -10, 0.0001 µM): 91.6497 and 103.346 and 103.977 | mean % of maximum accumulation [2, 3]: 86.0633% | mean % of maximum accumulation [2, 4]: 74.1428% | mean % of maximum accumulation [2, 5]: 59.2287% | mean % of maximum accumulation [2, 6]: 27.1109% | mean % of maximum accumulation [2, 7]: 10.5059% | mean % of maximum accumulation [2, 8]: 11.5505% | MAX100 (% of maximum accumulation, replicates 1-3) [2, 3]: 84.5638 and 89.1729 and 84.4531 | MAX100 (% of maximum accumulation, replicates 1-3) [2, 4]: 75.8389 and 73.3083 and 73.2812 | MAX100 (% of maximum accumulation, replicates 1-3) [2, 5]: 53.915 and 63.4586 and 60.3125 | MAX100 (% of maximum accumulation, replicates 1-3) [2, 6]: 28.9336 and 34.5865 and 17.8125 | MAX100 (% of maximum accumulation, replicates 1-3) [2, 7]: 10.962 and 9.774 and 10.7812 | MAX100 (% of maximum accumulation, replicates 1-3) [2, 8]: 12.4534 and 11.7293 and 10.4688
SMILES: CC12CC3CC1(C)C1(C)CC3(C(=O)NNc3ccccc3Cl)CC21C [UB-MBX-46]
normalized calcium signal, hP2X7R IC50 curve ([1]; Log(c) M -9.52288, 0.0003 µM): 83.2395 and 75.8405 and 85.4678 and 91.9881 | times more potent than UB-ALT-P30 on the hP2X7R ([1]; calcium influx): ~ 35 x | ΔΔGexp [2]: -9.92 ± 1.34 kJ/mol

IC50 [1]: 0.0178 µM and 0.018 µM | mean % of maximum accumulation [2, 9]: 94.223% | mean % of maximum accumulation [2, 10]: 86.3844% | mean % of maximum accumulation [2, 11]: 53.8482% | mean % of maximum accumulation [2, 12]: 26.7232% | mean % of maximum accumulation [2, 13]: 9.424% | mean % of maximum accumulation [2, 14]: 9.144% | IC50 ([2]; hP2X7R, ethidium bromide accumulation, mean ± SD, triplicate): 0.047 ± 0.004 µM | MAX100 (% of maximum accumulation, replicates 1-3) [2, 9]: 87.3374 and 88.4652 and 106.867 | MAX100 (% of maximum accumulation, replicates 1-3) [2, 10]: 79.5317 and 91.4204 and 88.2012 | MAX100 (% of maximum accumulation, replicates 1-3) [2, 11]: 46.9211 and 58.6273 and 55.9961 | MAX100 (% of maximum accumulation, replicates 1-3) [2, 12]: 22.0295 and 25.5481 and 32.5919 | MAX100 (% of maximum accumulation, replicates 1-3) [2, 13]: 9.107 and 5.6244 and 13.5397 | MAX100 (% of maximum accumulation, replicates 1-3) [2, 14]: 6.418 and 4.862 and 16.1509
SMILES: O=C(NNc1ccccc1Cl)C12CC3CC(CC(C3)C1)C2 [UB-ALT-P30, reference compound]
normalized calcium signal, hP2X7R IC50 curve ([1]; Log(c) M -9, 0.001 µM): 71.6317 and 73.6475 and 92.6717 and 89.8426 and 81.3931 | ΔΔGexp [2]: 0 kJ/mol
